Converted amounts (≈) assume the structure as drawn. Values belong to the compound of their own block, whether it stands above or below them.
Experiments:
[1] = cited from earlier work; for Half-Life: in vivo; for distribution half-life: delivered intravenously
[2] = Esmolol solubility in various excipients; assay type: physicochemical
Source text: Knowing the solubility of a drug in different excipients and chemical enhancers is important in optimizing the saturation solubility of the drug in topical and transdermal formulations. Here below is a table (Table 1) showing the solubility of esmolol in several excipients and chemical enhancers. The solubility of Esmolol was higher in hydrophilic excipients and lower in the more lipophilic excipients. Several of these compounds were used to prepare the formulations in Example 2, such as the co-enhancing system of oleyl alcohol and propylene glycol.

[3] = cited from earlier work
[4] = children, after an oral dose; cited from earlier work
[5] = drop (0.05 mL) of timolol 0.5% solution to the eye of an adult; cited from earlier work
[6] = cited from earlier work; remark: listed apart in the source
[7] = children with pediatric glaucoma, intraocular; cited from earlier work
[8] = adults; cited from earlier work
[9] = test system: beta adrenergic receptors; details: times more potent; cited from earlier work
[10] = test system: beta adrenergic receptors; details: fraction of the potency of Esmolol; cited from earlier work

SMILES: CC(C)(C)NCC(O)COc1cccc2c1CCC(=O)N2 (stereo not shown) [Corteolol]
Half-Life [1]: 6 to 8 h

Sat. Conc. ([2]; Castor Oil (CO)): 23.4 mg/mL | Sat. Conc. ([2]; Cotton seed oil (CSO)): 101.9 mg/mL | Sat. Conc. ([2]; DMSO): 592.1 mg/mL | Sat. Conc. ([2]; Dipropylene Glycol): 257.6 mg/mL | Sat. Conc. ([2]; Ethanol): 310.4 mg/mL | Sat. Conc. ([2]; Glyceryl monooleate (GMO)): 157.3 mg/mL | Sat. Conc. ([2]; Isopropyl myristate (IPM)): 196.2 mg/mL | Sat. Conc. ([2]; Lauroglycol FCC (LG)): 122.2 mg/mL | Sat. Conc. ([2]; Oleic acid (OA)): 56.9 mg/mL | Sat. Conc. ([2]; Oleyl Alcohol): 112.2 mg/mL | Sat. Conc. ([2]; Olive Oil (OO)): 58.1 mg/mL | Sat. Conc. ([2]; PEG-400): 248.6 mg/mL | Sat. Conc. ([2]; Propylene Glycol): 450.7 mg/mL | Sat. Conc. ([2]; Sesame oil (SO)): 56.6 mg/mL | Sat. Conc. ([2]; Transcutol P): 344.5 mg/mL | solubility thermodynamic ([2]; water, read-out: Sat. Conc.): 704 mg/mL (≈ 2380 mM)
SMILES: COC(=O)CCc1ccc(OCC(O)CNC(C)C)cc1 (stereo not shown) [Esmolol, methyl 3-[4-[2-hydroxy-3-(propan-2-ylamino)propoxy]phenyl]propanoate]
distribution half-life [1]: about 2 minutes | Half-Life [1]: 0.15 h

SMILES: CC1(C)OC[C@@H](COC(=O)CCc2ccc(OC[C@@H](O)CNCCNC(=O)N3CCOCC3)cc2)O1 [Landiolol, [(4S)-2,2-dimethyl-1,3-dioxolan-4-yl]methyl 3-[4-[(2S)-2-hydroxy-3-[2-(morpholine-4-carbonylamino)ethylamino]propoxy]phenyl]propanoate]
LogP [3]: 0.44 | distribution half-life [1]: about 2 minutes | Half-Life [1]: 0.05 to 0.1 h

SMILES: COCCc1ccc(OCC(O)CNC(C)C)cc1 (stereo not shown) [Metoprolol]
Half-Life [1]: 3 to 7 h

SMILES: CC(C)(C)NCC(O)COc1cccc2c1CC(O)C(O)C2 (stereo not shown) [Nadolol]
LogP [3]: 1 | Half-Life [1]: 14 to 25 h

SMILES: C=CCOc1ccccc1OCC(O)CNC(C)C (stereo not shown) [Oxprenolol]
LogP [3]: 2.1 | Half-Life [1]: 1 to 2 h

SMILES: CC(C)(C)NC[C@H](O)COc1ccccc1C1CCCC1 [Penbutolol]
LogP [3]: 4.15 | Half-Life [1]: 20 h

SMILES: CC(C)NCC(O)COc1cccc2[nH]ccc12 (stereo not shown) [Pindolol]
LogP [3]: 1.75 | Half-Life [1]: 3 to 4 h

SMILES: CC(C)NCC(O)COc1cccc2ccccc12 (stereo not shown) [Propranolol]
time of peak effect on blood pressure and heart rate [4]: around 2 hours | Half-Life [1]: 4 to 5 h

SMILES: CC(C)(C)NC[C@H](O)COc1nsnc1N1CCOCC1 [Timolol]
fraction of each drop systemically absorbed through the ocular mucosa [5]: approximately 80% | plasma samples in which timolol was detected ([6]; 86/92 samples, applied to skin over IH): 93% | plasma level normalized for dose, mean ([6]; applied to skin over IH): 24.1 ± 62.7 ng/mL/mg | plasma level normalized for dose, median ([6]; applied to skin over IH): 3 ng/mL/mg | plasma level normalized for dose, range ([6]; applied to skin over IH): 0.06 to 424 ng/mL/mg | plasma level, median ([6]; applied to skin over IH): 0.98 ng/mL | plasma level, range ([6]; applied to skin over IH): 0.03 to 106 ng/mL | samples with plasma levels >0.2 ng/mL ([6]; applied to skin over IH): 80% | samples between 0.020-0.2 ng/mL ([6]; of 86 samples): 12/86 | subjects with plasma levels ≥10 ng/mL ([6]; similar to intravenous administration): Ten | systemic adverse effects (bradycardia, hypoglycemia, bronchial hyperreactivity), share of children [7]: 3-4% | LogP [3]: 1.4 | Half-Life [1]: 2.5 to 5 h | plasma concentration demonstrated to have measurable systemic beta-blocking activity [8]: 0.2 ng/mL | potency compared with propranolol [9]: 4-10 times

SMILES: CC(C)NCC(O)COc1ccc(CCC(=O)O)cc1 (stereo not shown) [inactive metabolite]
potency relative to Esmolol [10]: 1/1500

From US12629378B2, “Treatment of infantile hemangioma” (Arkayli Biopharma Inc., priority 2019, dated 2026)
